Results reported in patent publication US8399206B2, “Methods for diagnosis, prognosis and methods of treatment” (Nodality, Inc., priority 2008, dated 2013).

Key:
Format in all cases: cell-based, human
AML blasts = experiment: SCNP / phospho-flow modulated signaling assay, AML study No. 1 (PBMC at diagnosis, CR vs NR)
Text: The present illustrative example represents how to analyze cells in one embodiment of the present invention. There are several steps in the process, such as the stimulation step, the staining step and the flow cytometry step. The stimulation step of the phospho-flow procedure can start with vials of frozen cells and end with cells fixed and permeabilized in methanol. Then the cells can be stained with an antibody directed to a particular protein of interest and then analyzed using a flow cytometer.
Frozen cells are thawed in a 37° C. water bath and gently resuspended in the vial and transferred to the 15 mL conical tube. The 15 mL tube is centrifuged at 930 RPM (200×g) for 8 minutes at room temperature. The supernatant is aspirated and the pellet is gently resuspended in 1 mL media A. The cell suspension is filtered through a 70 um cell strainer into a new 15 mL tube. The cell strainer is rinsed with 1 mL media A and another 12 ml of media A into the 15 mL tube. The cells are mixed into an even suspension. A 20 μL aliquot is immediately removed into a 96-well plate containing 180 μL PBS+4% FBS+CD45 Alexa 700+PI to determine cell count and viability post spin. After the determination, the 15 mL tubes are centrifuged at 930 RPM (200×g) for 8 minutes at room temperature. The supernatant is aspirated and the cell pellet is gently resuspended in 4 mL PBS+4 μL Amine Aqua and incubated for 15 min in a 37° C. incubator. 10 mL RPMI+1% FBS is added to the cell suspension and the tube is inverted to mix the cells. The 15 mL tubes are centrifuged at 930 RPM (200×g) for 8 minutes at room temperature. The cells are resuspended in Media A at the desired cell concentration (1.25×10^6/mL). For samples with low numbers of cells (<18.5×10^6), the cells are resuspended in up to 15 mL media. For samples with high numbers of cells (>18.5×10^6), the volume is raised to 10 mL with media A and the desired volume is transferred to a new 15 mL tube, and the cell concentration is adjusted to 1.25×10^6 cells/ml. 1.6 mL of the above cell suspension (concentration at 1.25×10^6 cells/ml) is transferred into wells of a multi-well plate. From this plate, 80 ul is dispensed into each well of a subsequent plate. The plates are covered with a lid (Nunc) and placed in a 37° C. incubator for 2 hours to rest.
A concentration for each stimulant that is five folds more (5×) than the final concentration is prepared using Media A as diluent. 5× stimuli are arrayed into wells of a standard 96 well v-bottom plate that correspond to the wells on the plate with cells to be stimulated.
Adding the stimulant: The cell plate(s) are taken out of the incubator and placed in a 37° C. water bath next to the pipette apparatus. The cell plate is taken from the water bath and gently swirled to resuspend any settled cells. With pipettor, the stimulant is dispensed into the cell plate and vortexed at “7” for 5 seconds. The deep well plate is put back into the water bath.
Adding Fixative: 200 μl of the fixative solution (final concentration at 1.6%) is dispensed into wells and then mixed on the titer plate shaker on high for 5 seconds. The plate is covered with foil sealer and incubated in a 37° C. water bath for 10 minutes. The plate is spun for 6 minutes at 2000 rpm at room temperature. The cells are aspirated using a 96 well plate aspirator (VP Scientific). The plate is vortexed to resuspend cell pellets in the residual volume. The pellet is ensured to be dispersed before the Methanol step (see cell permeabilization) or clumping will occur.
Cell Permeabilization: Permeability agent, for example methanol, is added slowly and while the plate is vortexing. To do this, the cell plate is placed on titer plate shaker and made sure it is secure. The plate is set to shake using the highest setting. A pipetter is used to add 0.6 mls of 100% methanol to the plate wells. The plate(s) are put on ice until this step has been completed for all plates.

AML BMMC leukemic blasts [1] = experiment: SCNP modulated signaling assay, AML study No. 2 (BMMC, CR vs NR, clinical sub-groups)
Description: Two independent sets of cryopreserved samples were analyzed sequentially. The first set consisted of 35 peripheral blood mononuclear cell (PBMC) samples derived from AML patients. The second set consisted of 134 cryopreserved bone marrow mononuclear cell (BMMC) samples derived from AML patients. These samples were the same samples used in the previous examples. Sample inclusion criteria required collection prior to initiation of induction chemotherapy, AML classification by the French-American-British (FAB) criteria as M0 through M7 (excluding M3) and availability of clinical annotations.
In the first study, induction chemotherapy consisted of at least one cycle of standard cytarabine-based induction therapy (i.e. daunorubicin 60 mg/m^2×3 days, cytarabine 100-200 mg/m^2 continuous infusion×7 days); responses were measured after one cycle of induction therapy. In the second study, cytarabine (200 mg/m^2 to 3 g/m^2) was used in combination with an anthracycline (daunorubicin or idarubicin) or an additional anti-metabolite (e.g. fludarabine or troxacitabine), and sometimes, an experimental agent (Table 16). […] Standard clinical and laboratory criteria were used for defining complete response (CR) in both studies. […] Classified as “CRp,” these samples were included in the CR group for all primary analysis. The univariate analyses were also repeated with the CRp patients classified into the NR sample group for sensitivity analysis.
Cyropreserved samples were thawed at […], washed and centrifuged in PBS, 10% FBS and 2 mM EDTA. The cells were re-suspended, filtered to remove debris and washed in RPMI cell culture media, 1% FBS, then stained with Live/Dead Fixable Aqua Viability Dye to distinguish non-viable cells. The cells were then re-suspended in RPMI, 1% FBS, aliquoted to 100,000 cells/condition and rested for 1-2 hours at 37° C. prior to SCNP assays. Each condition included two to five phenotypic markers for cell population gating (eg, CD45, CD33), up to three intracellular stains or up to three additional surface markers or control antibodies for an eight-color flow cytometry assay.
Functional assays were performed as previously described. Cells were incubated with modulators (Table 18), at 37° C. for 3-15 minutes, fixed with 1.6% paraformaldehyde (final concentration) for 10 minutes at 37° C., pelleted and permeabilized with 100% ice-cold methanol and stored at −80° C.
Data was acquired using FACS DIVA software on both LSR II and CANTO II Flow Cytometers (BD). For all analyses, dead cells and debris were excluded by forward scatter (FSC), side scatter (SSC), and Amine Aqua Viability Dye measurement. Leukemic cells were identified as cells that lacked the characteristics of mature lymphocytes (CD45^++, CD33^−) and that fit the CD45 and CD33 versus right-angle light-scatter characteristics consistent with myeloid leukemia cells.
The median fluorescence intensity (MFI) was computed for each node from the fluorescence intensity levels for the cells in the myeloid population. The MFI values were then used to compute a variety of metrics by comparing them to baseline or background values, including the unmodulated condition, cellular autofluorescence and antibody isotype controls. The following metrics were computed: • 1. Basal MFI (“Basal”)=log2(MFIUnmodulated Stained)−log2(MFIGated Unstained (Autofluoresence)), designed to measure the basal levels of a certain protein under unmodulated conditions. • 2.

[2] = test system: pediatric AML leukemic blasts; experiment: SCNP assay on pediatric AML bone marrow samples, POG trial 9421 (Example 11)
Description: SCNP assays were performed on 77 bone marrow samples from pediatric AML patients enrolled in POG trial 9421 of which 67 were evaluable/had sufficient data for analysis and were enriched for non-responders (NR). 80 combinations of modulators and intra-cellular proteins (signaling nodes) were investigated including nodes involved in the phosphoinositide 3-kinase (PI3K), Janus Kinases (JAK), signal transducers and activators of transcription (STAT) and the DNA damage response and apoptosis pathways. Basal and modulated protein levels in leukemic blasts were measured using several metrics (e.g., fold change, total level of phosphorylation, and a rank based method Uu measuring the proportion of cells that shift from baseline), and nodes were examined in univariate and multivariate analyses for their ability to discriminate between AML responsive (CR, n=46) and non-responsive (NR, n=21) to anthracycline/cytarabine-based induction therapy. Furthermore, nodes were examined for their ability to identify patients likely to be in complete continuous remission (CCR, n=23) or relapse (CR-Rel, n=23) within 4 years.

AML BMMC leukemic blasts [3] = experiment: Functional apoptosis assay, AML study No. 2 (etoposide or Ara-C and daunorubicin, 24 hours); conditions: patients younger than 60 years old
Description: Multi-parameter flow cytometric analysis was performed on BMMC samples taken at diagnosis from 61 AML patients. The samples were balanced for complete response (CR) and non-responders (NR) after 1 to 3 cycles of induction therapy and de novo versus secondary AML. Nodes in Tables 2 to 10 were examined.
Functional assays were performed as previously described. […]
The median fluorescence intensity (MFI) was computed for each node from the fluorescence intensity levels for the cells in the myeloid population. The MFI values were then used to compute a variety of metrics by comparing them to baseline or background values, including the unmodulated condition, cellular autofluorescence and antibody isotype controls. The following metrics were computed: • 1. Basal MFI (“Basal”)=log2(MFIUnmodulated Stained)−log2(MFIGated Unstained (Autofluoresence)), designed to measure the basal levels of a certain protein under unmodulated conditions. • 2. Fold Change MFI (“Fold”)=log2(MFIModulated Stained)−log2(MFIUnmodulated Stained), a measure of the change in the activation state of a protein under modulated conditions. • 3. Total Phospho MFI (“TotalPhospho”)=log2(MFIModulated Stained)−log2(MFIGated Unstained (Autofluorescence)), a measure of the total levels of a protein under modulated conditions. • 4. […]

[4] = test system: FLT3-WT and FLT3-ITD AML leukemic blasts; experiment: SCNP signaling and apoptosis in FLT3-WT versus FLT3-ITD AML samples (Example 9); conditions: FLT3-ITD vs FLT3-WT samples, study 1 and study 2
Text: This example identifies intracellular signaling pathways associated with FLT3 ITD in two independent cohorts of diagnostic AML samples that serve as an improvement over current clinical tools in the identification of clinically meaningful altered FLT 3 and has implications for cohort selection in the development of FLT3 inhibitors. The two cohorts of data were further analyzed to investigate the differences in signaling between FLT-WT and FLT-ITD samples. The first cohort of data (“study 1”) comprised the 34 samples from University Health Network outlined in Table 16 and Table 19. The second cohort of data (“study 2”) comprised an 83 sample subset of MD Anderson Cancer Center data outlined in Table 16 (and Table 19). The 83 sample subset was selected based on known FLT3 mutation status. Both cohorts of data were used to investigate differences in FLT3 signaling between leukemic blasts and control data.
In order to further characterize wild-type FLT receptor signaling in AML, we compared FLT3L-induced signaling in the myeloblast population of control BMMC samples with FLT3L-induced signaling in the leukemic blast population of FLT3-WT AML samples.
Univariate analysis, unadjusted for multiple testing, was performed sequentially and independently on the two study cohorts in order to identify signaling nodes that distinguished with FLT3-ITD from FLT3-WT AML patient samples. […] Results from both studies include the AUC, Wilcoxon and t-test p-value for each node, and the number/mean value of the samples in the FLT3-ITD and FLT3-WT AML groups with common stratifying nodes summarized in FIG. 23. Although the majority of the discussion herein is directed to nodes that had similar reponses within the two cohorts of data, some differences were observed between the two cohorts of data. These differences may have been due to the different clinical characteristics of the two cohorts of data, specifically biases in the data from UHN.

AML leukemic cells = experiment: Apoptosis/cytostasis arm: 48-hr kinase inhibitor incubation of AML cells (cleaved PARP, CyclinB1, p-Histone H3); conditions: 1 μM; two samples with the greatest SCF and G-CSF signaling response and most robust proliferation
Description: The TKIs impact was measured on distal functional readouts, including apoptosis (cleaved PARP) and cell cycle (CyclinB1-S/G2 phase; p-Histone H3-M phase). All results were compared with results from bone marrow samples from healthy donors (N=6).

[5] = Study No. 2, all patients, CR samples
[6] = Study No. 2, all patients, NR samples
[7] = Study No. 1 sensitivity analysis, CR samples
[8] = Study No. 1 sensitivity analysis, NR samples incl. CRp

Compound: OO [H2O2, hydrogen peroxide, reference compound]
- phosphorylated PLCγ2 and SLP-76 upon H2O2 treatment (AML blasts; CR patients versus NR patients): attained higher levels of phosphorylated PLCγ2 and SLP-76 upon H2O2 treatment
- p-Akt levels upon H2O2 treatment (AML blasts; NR vs CR patient blasts): higher levels of p-Akt in NR patients versus CR patients
- p-AKT and p-PLCγ2 following H2O2 treatment (AML BMMC leukemic blasts [1]; NR samples, older patient cohort (>=60 years)): increases in p-AKT and p-PLCγ2
- Mean Value of CRs, p-Akt Fold (AML BMMC leukemic blasts [1]; [5]): 0.68
- Mean Value of NRs, p-Akt Fold (AML BMMC leukemic blasts [1]; [6]): 0.91
- H2O2 and FLT3L responses, NR vs CR (AML BMMC leukemic blasts [1]; patients younger than 60 years old (so in the source)): NRs have higher H2O2 and FLT3L responses than CRs
- p-Akt and p-PLC gamma levels with hydrogen peroxide as modulator ([2]; NR samples): lower p-Akt and p-PLC gamma levels in NR samples

Compound: COc1cc([C@@H]2c3cc4c(cc3[C@@H](O[C@@H]3O[C@@H]5CO[C@@H](C)O[C@H]5[C@H](O)[C@H]3O)[C@H]3COC(=O)[C@H]23)OCO4)cc(OC)c1O [Etoposide]
- induced apoptosis, CR vs NR (AML BMMC leukemic blasts [3]): CRs induce apoptosis to Etoposide or Ara-C/Daunorubicin more than NRs
- in vitro apoptosis (etoposide→c-PARP|Total) [4]: more sensitive to in vitro apoptosis than FLT3-WT samples
- apoptotic response (c-PARP, p-Chk2), CR vs NR ([2]; CR n=46, NR n=21): higher levels of apoptosis in CR samples than in NR samples

Compound: C/C=C(/C)C(=O)O[C@H]1C(C)=C2[C@H]([C@@H]1OC(=O)CCCCCCC)[C@@](C)(OC(C)=O)C[C@H](OC(=O)CCC)[C@@]1(O)[C@H]2OC(=O)[C@@]1(C)O [Thapsigargin, reference compound]
- Mean Value of CRs, p-CREB Total Phospho (AML blasts; [7]): 1.79
- Mean Value of CRs, p-S6 Fold (AML blasts; [7]): 0.03
- Mean Value of CRs, p-S6 Total Phospho (AML blasts; [7]): 0.31
- Mean Value of NRs, p-CREB Total Phospho (AML blasts; [8]): 2.77
- Mean Value of NRs, p-S6 Fold (AML blasts; [8]): 0.31
- Mean Value of NRs, p-S6 Total Phospho (AML blasts; [8]): 0.67
- Mean Value of CRs, p-Erk Fold (AML BMMC leukemic blasts [1]; [5]): 1.22
- Mean Value of NRs, p-Erk Fold (AML BMMC leukemic blasts [1]; [6]): 0.36
- induction of p-Erk, p-CREB and p-S6 ([2]; relapse vs complete continuous remission (CCR)): less in CR-Rd than in CCR samples

Compound: C[C@@H]1CCN(C(=O)CC#N)C[C@@H]1N(C)c1ncnc2[nH]ccc12 [CP-690,550]
- sensitivity to kinase inhibitor as measured by cytostasis readouts (AML leukemic cells): most sensitive
